Measured values: ChEMBL document CHEMBL6182857, “Targeting biofilm formation in Candida albicans with halogenated pyrrolopyrimidine derivatives” (Eur J Med Chem, 2025)
Active and inactive are the calls of the source. The calls are words filed in the database; no cut-off is given here.

What was measured:
Candida albicans [1] = assay: Antibiofilm activity against fluconazole-resistant Candida albicans DAY185 assessed as inhibition of biofilm formation at 1 ug/ml measured after 24 hrs by crystal violet staining based analysis relative to control; assay type: functional
Candida albicans [2] = assay: Antibiofilm activity against fluconazole-resistant Candida albicans DAY185 assessed as inhibition of biofilm formation at 5 ug/ml measured after 24 hrs by crystal violet staining based analysis relative to control; assay type: functional, organism-based; settings: dose 5.0 µg/ml
Candida albicans [3] = assay: Antibiofilm activity against fluconazole-resistant Candida albicans DAY185 assessed as inhibition of biofilm formation at 50 ug/ml measured after 24 hrs by crystal violet staining based analysis relative to control; assay type: functional

SMILES | inhibition at 1 µg/mL (Candida albicans [1]) | inhibition (Candida albicans [2]) | inhibition at 50 µg/mL (Candida albicans [3])
CC(=O)N1CCN(c2ccc(OCC3COC(Cn4ccnc4)(c4ccc(Cl)cc4Cl)O3)cc2)CC1 (stereo not given) [KETOCONAZOLE] | < 12% |  | 
Clc1ccc(CCC(Cn2ccnc2)Sc2c(Cl)cccc2Cl)cc1 (stereo not given) [BUTOCONAZOLE] | 56% | Active | 
OC(Cn1cncn1)(Cn1cncn1)c1ccc(F)cc1F [FLUCONAZOLE] | < 12% |  | 
Clc1c[nH]c2ncnc(Cl)c12 |  |  | > 85%
